pIC50: −log10 of the molar value.
Columns and labels:
[1] = system: T47D (PI3Kα H1047R mutant) cells; experiment: CellTiter-Glo 2.0 luminescent cell viability assay, 72 hours, T47D cells; type: cell-based; details: Homo sapiens, T47D, 72 h, T47D (PI3Kα H1047R mutant) cells, CellTiter-Glo, approximately 72 hours; read-out: T47D (H1047R mutant) Viability IC50
In short: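 Viability was measured by CellTiter-Glo 2.0 luminescence after approximately 72 h of compound exposure at 37° C. Plating was 1000 cells per well the day before dosing, with ten 1:4 dilutions from a 10 µM top concentration. Values as percent of vehicle were fitted by variable-slope log(inhibitor) regression to give IC50.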

[2] = system: SKBR3 (PI3Kα wild type) cells; experiment: CellTiter-Glo 2.0 luminescent cell viability assay, 72 hours, SKBR3 cells; type: cell-based; details: Homo sapiens, SK-BR-3, 72 h, SKBR3 (PI3Kα wild type) cells, CellTiter-Glo, approximately 72 hours; read-out: SKBR3 (WT) Viability IC50
In short: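 Viability measured via CTG luminescence following roughly 72 hours of compound exposure at 37° C. Dosing used a 10 um starting concentration diluted 1:4 over 10 points; percent-of-vehicle data fitted with a variable-slope four-parameter model for IC50.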

Row | Structure (SMILES) | pIC50 [1] | pIC50 [2]
1 | Cc1cc([C@@H](C)Nc2ccccc2C(=O)O)c2nc(N3C[C@H](F)C[C@@H](F)C3)c(C#N)c(=O)n2c1 [Example 11-47, 2-(((R)-1-(3-cyano-2-((3R,5R)-3,5-difluoropiperidin-1-yl)-7-methyl-4-oxo-4H-pyrido[1,2-a]pyrimidin-9-yl)ethyl)amino)benzoic acid] | 6.62 | < 5.00
2 | Cc1cc([C@@H](C)Nc2ccccc2C(=O)O)c2nc(N3CCNC(=O)C3)c(C#N)c(=O)n2c1 [Example 11-284, (R)-2-((1-(3-cyano-7-methyl-4-oxo-2-(3-oxopiperazin-1-yl)-4H-pyrido[1,2-a]pyrimidin-9-yl)ethyl)amino)benzoic acid] | < 5.00 | < 5.00
3 | Cc1cc([C@@H](C)Nc2ccccc2C(=O)O)c2nc(N3Cc4ncsc4C3)c(C)c(=O)n2c1 [Example 11-304, (R)-2-((1-(2-(4,6-dihydro-5H-pyrrolo[3,4-d]thiazol-5-yl)-3,7-dimethyl-4-oxo-4H-pyrido[1,2-a]pyrimidin-9-yl)ethyl)amino)benzoic acid] | 6.71 | < 5.00
4 | Cc1cnn(C2CCN(c3nc4c([C@@H](C)Nc5ccccc5C(=O)O)cc(C)cn4c(=O)c3C)CC2)c1 [Example 10-16, (R)-2-((1-(3,7-dimethyl-2-(4-(4-methyl-1H-pyrazol-1-yl)piperidin-1-yl)-4-oxo-4H-pyrido[1,2-a]pyrimidin-9-yl)ethyl)amino)benzoic acid] | 7.43 | < 5.00
5 | Cc1cc([C@@H](C)Nc2ccc(C)nc2C(=O)O)c2nc(N3CCC(F)(F)CC3)c(C)c(=O)n2c1 [Example 11-46, (R)-3-((1-(2-(4,4-difluoropiperidin-1-yl)-3,7-dimethyl-4-oxo-4H-pyrido[1,2-a]pyrimidin-9-yl)ethyl)amino)-6-methylpicolinic acid] | 6.82 | < 5.00
6 | Cc1cc([C@@H](C)Nc2ccccc2C(=O)O)c2nc(O[C@H]3CCOC3)c(C#N)c(=O)n2c1 [Example 11-248, 2-(((R)-1-(3-cyano-7-methyl-4-oxo-2-(((S)-tetrahydrofuran-3-yl)oxy)-4H-pyrido[1,2-a]pyrimidin-9-yl)ethyl)amino)benzoic acid] | 5.66 | 5.37
7 | Cc1cc([C@@H](C)Nc2ccccc2C(=O)O)c2nc(N3CCC(n4ccc(C(F)(F)F)n4)CC3)c(C)c(=O)n2c1 [Example 10-104, (R)-2-((1-(3,7-dimethyl-4-oxo-2-(4-(3-(trifluoromethyl)-1H-pyrazol-1-yl)piperidin-1-yl)-4H-pyrido[1,2-a]pyrimidin-9-yl)ethyl)amino)benzoic acid] | 7.06 | < 5.00
8 | Cc1cc([C@@H](C)Nc2ccccc2C(=O)O)c2nc(N3CCN(c4ccc(C#N)c5ccc(O)cc45)CC3)c(C)c(=O)n2c1 [Example 11-255, (R)-2-((1-(2-(4-(4-cyano-7-hydroxynaphthalen-1-yl)piperazin-1-yl)-3,7-dimethyl-4-oxo-4H-pyrido[1,2-a]pyrimidin-9-yl)ethyl)amino)benzoic acid] | 6.55 | < 5.00
9 | Cc1cc([C@@H](C)Nc2ccccc2C(=O)O)c2nc(N3CCN(c4nc(C)cs4)CC3)c(C)c(=O)n2c1 [Example 11-446, (R)-2-((1-(3,7-dimethyl-2-(4-(4-methylthiazol-2-yl)piperazin-1-yl)-4-oxo-4H-pyrido[1,2-a]pyrimidin-9-yl)ethyl)amino)benzoic acid] | 6.52 | < 5.00
10 | Cc1cc([C@@H](C)Nc2ccccc2C(=O)O)c2nc(NCC3(C(F)(F)F)CC3)c(C#N)c(=O)n2c1 [Example 11-159, (R)-2-((1-(3-cyano-7-methyl-4-oxo-2-(((1-(trifluoromethyl)cyclopropyl)methyl)amino)-4H-pyrido[1,2-a]pyrimidin-9-yl)ethyl)amino)benzoic acid] | 6.75 | < 5.00
11 | Cc1cc([C@@H](C)Nc2ccccc2C(=O)O)c2nc(N3CC(F)(F)C3)c(C)c(=O)n2c1 [Example 11-115, (R)-2-((1-(2-(3,3-difluoroazetidin-1-yl)-3,7-dimethyl-4-oxo-4H-pyrido[1,2-a]pyrimidin-9-yl)ethyl)amino)benzoic acid] | 6.42 | < 5.00
12 | Cc1cc([C@@H](C)Nc2ccccc2C(=O)O)c2nc(N3CC(F)C3)c(C#N)c(=O)n2c1 [Example 11-113, (R)-2-((1-(3-cyano-2-(3-fluoroazetidin-1-yl)-7-methyl-4-oxo-4H-pyrido[1,2-a]pyrimidin-9-yl)ethyl)amino)benzoic acid] | 6.60 | < 5.00
13 | Cc1cc([C@@H](C)Nc2ccccc2C(=O)O)c2nc(N3CCC(C(C)(C)C)n4nccc43)c(C)c(=O)n2c1 (stereo partly drawn) [Example 11-13, 2-(((1R)-1-(2-(7-(tert-butyl)-6,7-dihydropyrazolo[1,5-a]pyrimidin-4(5H)-yl)-3,7-dimethyl-4-oxo-4H-pyrido[1,2-a]pyrimidin-9-yl)ethyl)amino)benzoic acid] | 6.49 | < 5.00

Continued by rising pIC50 [1], values first:

Row | pIC50 [1] | pIC50 [2] | Structure (SMILES)
14 | 5.38 | < 5.00 | Cc1cc([C@@H](C)Nc2ccnnc2C(=O)O)c2nc(N3Cc4ccccc4C3)c(C)c(=O)n2c1 [Example 11-277, (R)-4-((1-(2-(isoindolin-2-yl)-3,7-dimethyl-4-oxo-4H-pyrido[1,2-a]pyrimidin-9-yl)ethyl)amino)pyridazine-3-carboxylic acid]
15 | 5.98 | < 5.00 | Cc1cc([C@@H](C)Nc2ccccc2C(=O)O)c2nc(N[C@@H](C3CC3)C(F)(F)F)c(C#N)c(=O)n2c1 [Example 11-161, 2-(((R)-1-(3-cyano-2-(((S)-1-cyclopropyl-2,2,2-trifluoroethyl)amino)-7-methyl-4-oxo-4H-pyrido[1,2-a]pyrimidin-9-yl)ethyl)amino)benzoic acid]
16 | 6.32 | 5.01 | Cc1cc(C(C)Nc2ccc(Cl)nc2C(=O)O)c2nc(N3CCCCC3)c(C#N)c(=O)n2c1 (stereo not shown) [Example 11-332, 6-chloro-3-((1-(3-cyano-7-methyl-4-oxo-2-(piperidin-1-yl)-4H-pyrido[1,2-a]pyrimidin-9-yl)ethyl)amino)picolinic acid]
17 | 6.39 | < 5.00 | Cc1cc([C@@H](C)Nc2ccccc2C(=O)O)c2nc(N3CCn4nccc4C3)c(C)c(=O)n2c1 [Example 11-431, (R)-2-((1-(2-(6,7-dihydropyrazolo[1,5-a]pyrazin-5(4H)-yl)-3,7-dimethyl-4-oxo-4H-pyrido[1,2-a]pyrimidin-9-yl)ethyl)amino)benzoic acid]
18 | 6.43 | < 5.00 | Cc1cc([C@@H](C)Nc2ccccc2C(=O)O)c2nc(N3CCN(c4ccccc4C#N)CC3)c(C#N)c(=O)n2c1 [Example 11-260, (R)-2-((1-(3-cyano-2-(4-(2-cyanophenyl)piperazin-1-yl)-7-methyl-4-oxo-4H-pyrido[1,2-a]pyrimidin-9-yl)ethyl)amino)benzoic acid]
19 | 6.50 | < 5.00 | Cc1cc([C@@H](C)Nc2ccccc2C(=O)O)c2nc(N3CCC(C4CCC4)CC3)c(C)c(=O)n2c1 [Example 11-20, (R)-2-((1-(2-(4-cyclobutylpiperidin-1-yl)-3,7-dimethyl-4-oxo-4H-pyrido[1,2-a]pyrimidin-9-yl)ethyl)amino)benzoic acid]
20 | 6.52 | < 5.00 | Cc1cc([C@@H](C)Nc2ccc(Cl)nc2C(=O)O)c2nc(N3CCCCC3)c(C#N)c(=O)n2c1 [Example 11-331, (R)-6-chloro-3-((1-(3-cyano-7-methyl-4-oxo-2-(piperidin-1-yl)-4H-pyrido[1,2-a]pyrimidin-9-yl)ethyl)amino)picolinic acid]
21 | 6.59 | < 5.00 | Cc1cc([C@@H](C)Nc2ccccc2C(=O)O)c2nc(N3CCC4(CC3)CC4)c(C)c(=O)n2c1 [Example 11-221, (R)-2-((1-(3,7-dimethyl-4-oxo-2-(6-azaspiro[2.5]octan-6-yl)-4H-pyrido[1,2-a]pyrimidin-9-yl)ethyl)amino)benzoic acid]
22 | 6.62 | < 5.00 | Cc1cc([C@@H](C)Nc2ccccc2C(=O)O)c2nc(N3CC(c4cccnc4)C3)c(C)c(=O)n2c1 [Example 11-21, (R)-2-((1-(3,7-dimethyl-4-oxo-2-(3-(pyridin-3-yl)azetidin-1-yl)-4H-pyrido[1,2-a]pyrimidin-9-yl)ethyl)amino)benzoic acid]
23 | 6.63 | < 5.00 | Cc1cc([C@@H](C)Nc2ccccc2C(=O)O)c2nc(NCC3CC(F)(F)C3)c(C#N)c(=O)n2c1 [Example 11-198, (R)-2-((1-(3-cyano-2-(((3,3-difluorocyclobutyl)methyl)amino)-7-methyl-4-oxo-4H-pyrido[1,2-a]pyrimidin-9-yl)ethyl)amino)benzoic acid]
24 | 6.73 | < 5.00 | COC1CN(c2nc3c([C@@H](C)Nc4ccccc4C(=O)O)cc(C)cn3c(=O)c2C)C1 [Example 11-112, (R)-2-((1-(2-(3-methoxyazetidin-1-yl)-3,7-dimethyl-4-oxo-4H-pyrido[1,2-a]pyrimidin-9-yl)ethyl)amino)benzoic acid]
25 | 6.93 | < 5.00 | Cc1cc([C@@H](C)Nc2ccccc2C(=O)O)c2nc(N3CC4(CCC4(F)F)C3)c(C)c(=O)n2c1 [Example 11-201, (R)-2-((1-(2-(5,5-difluoro-2-azaspiro[3.3]heptan-2-yl)-3,7-dimethyl-4-oxo-4H-pyrido[1,2-a]pyrimidin-9-yl)ethyl)amino)benzoic acid]
26 | 7.28 | < 5.00 | CO[C@@H]1CCN(c2nc3c([C@@H](C)Nc4ccccc4C(=O)O)cc(C)cn3c(=O)c2C)CC1(F)F [Example 10-28, 2-(((R)-1-(2-((R)-3,3-difluoro-4-methoxypiperidin-1-yl)-3,7-dimethyl-4-oxo-4H-pyrido[1,2-a]pyrimidin-9-yl)ethyl)amino)benzoic acid]
